Two compounds from publication PMC8213057, “Targeting ALK2: An Open Science Approach to Developing Therapeutics for the Treatment of Diffuse Intrinsic Pontine Glioma” (Journal of Medicinal Chemistry, 2020) can be followed below.

SMILES strings stand for the structures. Several values for one entry are separate records, joined by “and”; a condition that tells them apart may be missing. Equal entries are not always repeated.

The target of one assay is T1, TAOK2/TAO1 (Homo sapiens, UniProt Q9UL54).
T1 sequence (Q9UL54 1-1235): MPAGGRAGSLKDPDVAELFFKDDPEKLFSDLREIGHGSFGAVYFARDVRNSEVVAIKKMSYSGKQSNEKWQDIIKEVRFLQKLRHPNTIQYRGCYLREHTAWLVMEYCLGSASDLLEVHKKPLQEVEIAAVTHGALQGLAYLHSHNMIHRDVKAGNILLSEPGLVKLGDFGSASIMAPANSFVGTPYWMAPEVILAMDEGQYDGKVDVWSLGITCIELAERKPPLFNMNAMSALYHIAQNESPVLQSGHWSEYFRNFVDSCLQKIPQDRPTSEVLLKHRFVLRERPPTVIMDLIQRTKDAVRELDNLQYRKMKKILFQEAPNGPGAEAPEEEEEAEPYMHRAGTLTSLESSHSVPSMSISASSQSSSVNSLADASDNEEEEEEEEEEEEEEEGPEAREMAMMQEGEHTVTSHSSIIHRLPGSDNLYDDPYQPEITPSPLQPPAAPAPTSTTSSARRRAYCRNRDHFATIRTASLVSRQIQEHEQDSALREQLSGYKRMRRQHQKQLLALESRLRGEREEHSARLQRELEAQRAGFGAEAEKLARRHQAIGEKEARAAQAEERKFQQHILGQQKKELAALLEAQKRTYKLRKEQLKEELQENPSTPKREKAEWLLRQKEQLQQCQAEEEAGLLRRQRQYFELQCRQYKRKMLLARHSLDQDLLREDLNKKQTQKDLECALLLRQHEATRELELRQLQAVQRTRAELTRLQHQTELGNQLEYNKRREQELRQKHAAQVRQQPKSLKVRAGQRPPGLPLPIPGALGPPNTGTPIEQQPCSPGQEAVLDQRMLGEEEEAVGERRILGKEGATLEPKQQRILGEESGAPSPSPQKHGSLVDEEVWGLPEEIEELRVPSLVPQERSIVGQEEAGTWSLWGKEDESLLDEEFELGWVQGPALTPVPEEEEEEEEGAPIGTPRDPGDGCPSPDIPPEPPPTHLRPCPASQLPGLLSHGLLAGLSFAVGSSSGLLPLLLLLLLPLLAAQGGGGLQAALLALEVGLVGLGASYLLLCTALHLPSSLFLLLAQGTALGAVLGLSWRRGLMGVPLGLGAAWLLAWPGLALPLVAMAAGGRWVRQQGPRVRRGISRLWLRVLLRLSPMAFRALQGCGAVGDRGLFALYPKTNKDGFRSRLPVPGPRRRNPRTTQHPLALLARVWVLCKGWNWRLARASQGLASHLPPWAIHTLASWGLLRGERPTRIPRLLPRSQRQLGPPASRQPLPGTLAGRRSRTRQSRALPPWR
Particulars: 1 μM; Run 1, Run 2.

The target of the next assay is PKCeta (Homo sapiens, UniProt P24723). Briefly: biochemical. The following applies: read-out: % enzyme activity, 1 μM; Run 1, Run 2.
For the next assay, the target named is CDK16/cyclin Y (PCTAIRE) (Homo sapiens, UniProt Q00536). The following applies: 1 μM; Run 1, Run 2.
Another assay concerns the target CK1G3 (Homo sapiens, UniProt Q9Y6M4). Briefly: biochemical. The following applies: read-out: % enzyme activity, 1 μM; Run 1, Run 2.
The target in the next assay is LCK (Homo sapiens, UniProt P06239). The following applies: 1 μM; Run 1, Run 2.
The target of a further assay is T2, KSR1 (Homo sapiens, UniProt Q8IVT5).
T2 sequence (Q8IVT5 1-923): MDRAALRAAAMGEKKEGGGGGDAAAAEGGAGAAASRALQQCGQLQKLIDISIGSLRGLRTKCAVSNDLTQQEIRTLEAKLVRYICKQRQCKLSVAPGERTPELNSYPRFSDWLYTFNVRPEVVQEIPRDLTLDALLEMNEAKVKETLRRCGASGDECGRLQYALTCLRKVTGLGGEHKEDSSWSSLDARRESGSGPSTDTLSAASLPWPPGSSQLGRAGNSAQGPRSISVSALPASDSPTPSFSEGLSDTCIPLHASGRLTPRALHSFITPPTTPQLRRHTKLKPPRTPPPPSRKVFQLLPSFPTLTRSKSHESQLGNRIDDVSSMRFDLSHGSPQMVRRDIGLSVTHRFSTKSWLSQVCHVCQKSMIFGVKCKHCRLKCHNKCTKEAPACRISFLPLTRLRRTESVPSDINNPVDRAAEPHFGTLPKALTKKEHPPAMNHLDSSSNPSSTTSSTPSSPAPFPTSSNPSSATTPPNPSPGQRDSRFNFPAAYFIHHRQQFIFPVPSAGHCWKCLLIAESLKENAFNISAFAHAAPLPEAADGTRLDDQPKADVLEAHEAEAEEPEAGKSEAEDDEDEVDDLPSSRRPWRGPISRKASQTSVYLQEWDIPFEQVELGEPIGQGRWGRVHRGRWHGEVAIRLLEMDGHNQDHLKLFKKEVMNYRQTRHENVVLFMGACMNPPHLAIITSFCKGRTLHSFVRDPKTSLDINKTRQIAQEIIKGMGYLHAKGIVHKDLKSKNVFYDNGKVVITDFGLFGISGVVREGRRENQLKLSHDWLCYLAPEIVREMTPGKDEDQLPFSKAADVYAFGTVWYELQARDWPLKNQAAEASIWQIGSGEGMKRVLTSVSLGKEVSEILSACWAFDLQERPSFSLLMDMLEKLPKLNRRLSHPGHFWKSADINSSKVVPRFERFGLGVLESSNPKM
The experiment in a line: biochemical. The following applies: read-out: % enzyme activity, 1 μM; Run 1, Run 2.

Chain of CK1G3 (Q9Y6M4 whole entry): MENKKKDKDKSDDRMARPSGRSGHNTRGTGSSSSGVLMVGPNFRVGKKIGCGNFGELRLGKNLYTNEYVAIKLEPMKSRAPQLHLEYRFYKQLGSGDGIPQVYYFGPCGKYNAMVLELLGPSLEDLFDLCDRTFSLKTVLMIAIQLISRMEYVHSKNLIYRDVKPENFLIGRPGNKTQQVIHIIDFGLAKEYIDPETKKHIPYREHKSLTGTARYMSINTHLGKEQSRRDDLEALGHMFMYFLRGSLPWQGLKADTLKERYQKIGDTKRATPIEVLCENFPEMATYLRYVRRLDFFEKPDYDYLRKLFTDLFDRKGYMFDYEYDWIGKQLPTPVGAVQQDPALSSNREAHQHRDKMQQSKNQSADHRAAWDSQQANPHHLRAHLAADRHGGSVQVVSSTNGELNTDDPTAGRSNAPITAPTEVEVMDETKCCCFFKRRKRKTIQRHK
Chain of LCK (P06239 whole entry): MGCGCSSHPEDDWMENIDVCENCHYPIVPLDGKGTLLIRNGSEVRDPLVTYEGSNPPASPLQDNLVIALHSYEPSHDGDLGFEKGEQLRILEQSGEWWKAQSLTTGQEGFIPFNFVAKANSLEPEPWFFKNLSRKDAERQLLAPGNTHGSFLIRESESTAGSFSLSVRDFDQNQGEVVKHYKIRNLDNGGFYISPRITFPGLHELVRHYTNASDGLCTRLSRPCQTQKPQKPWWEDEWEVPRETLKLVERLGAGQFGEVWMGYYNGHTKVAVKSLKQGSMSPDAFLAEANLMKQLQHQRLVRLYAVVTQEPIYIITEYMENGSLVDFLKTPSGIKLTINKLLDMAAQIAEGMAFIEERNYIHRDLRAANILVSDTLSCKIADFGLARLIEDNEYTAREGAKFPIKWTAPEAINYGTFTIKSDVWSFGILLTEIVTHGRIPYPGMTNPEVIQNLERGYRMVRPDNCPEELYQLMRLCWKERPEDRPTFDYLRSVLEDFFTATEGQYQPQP
Chain of PKCeta (P24723 whole entry): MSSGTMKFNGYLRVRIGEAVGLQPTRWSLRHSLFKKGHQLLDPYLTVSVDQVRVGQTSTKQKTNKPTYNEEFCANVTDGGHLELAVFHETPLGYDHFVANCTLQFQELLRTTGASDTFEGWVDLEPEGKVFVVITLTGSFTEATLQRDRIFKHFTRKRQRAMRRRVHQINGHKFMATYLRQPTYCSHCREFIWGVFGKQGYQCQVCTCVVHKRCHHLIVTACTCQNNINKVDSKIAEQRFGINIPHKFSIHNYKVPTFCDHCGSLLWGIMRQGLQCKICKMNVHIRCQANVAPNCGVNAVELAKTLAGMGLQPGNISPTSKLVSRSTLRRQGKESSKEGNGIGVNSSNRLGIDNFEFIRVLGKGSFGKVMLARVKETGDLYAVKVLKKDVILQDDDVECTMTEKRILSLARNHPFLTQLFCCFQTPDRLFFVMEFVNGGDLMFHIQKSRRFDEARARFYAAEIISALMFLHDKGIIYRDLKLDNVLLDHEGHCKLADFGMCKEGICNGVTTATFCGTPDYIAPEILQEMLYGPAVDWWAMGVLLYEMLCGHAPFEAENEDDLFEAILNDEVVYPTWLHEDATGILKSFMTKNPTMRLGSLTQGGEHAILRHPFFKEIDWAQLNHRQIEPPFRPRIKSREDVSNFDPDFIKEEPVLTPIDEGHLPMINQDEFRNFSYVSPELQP
Chain of CDK16/cyclin Y (PCTAIRE) (Q00536 whole entry): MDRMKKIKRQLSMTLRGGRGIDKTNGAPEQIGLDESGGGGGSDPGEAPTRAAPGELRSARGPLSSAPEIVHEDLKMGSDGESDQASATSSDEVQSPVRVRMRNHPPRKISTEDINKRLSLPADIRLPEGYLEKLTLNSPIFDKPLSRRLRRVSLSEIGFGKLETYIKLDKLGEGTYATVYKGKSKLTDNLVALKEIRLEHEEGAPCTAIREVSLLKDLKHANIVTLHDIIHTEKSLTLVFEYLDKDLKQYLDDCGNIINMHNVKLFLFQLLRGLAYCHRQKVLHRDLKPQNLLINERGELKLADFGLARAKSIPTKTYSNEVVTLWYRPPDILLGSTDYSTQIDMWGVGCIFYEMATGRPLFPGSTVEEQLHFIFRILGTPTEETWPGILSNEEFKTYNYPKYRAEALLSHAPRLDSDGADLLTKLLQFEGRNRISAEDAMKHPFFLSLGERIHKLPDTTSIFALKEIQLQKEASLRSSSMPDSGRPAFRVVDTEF
Chain of CDK16/cyclin Y (PCTAIRE) (Q8ND76 whole entry partner): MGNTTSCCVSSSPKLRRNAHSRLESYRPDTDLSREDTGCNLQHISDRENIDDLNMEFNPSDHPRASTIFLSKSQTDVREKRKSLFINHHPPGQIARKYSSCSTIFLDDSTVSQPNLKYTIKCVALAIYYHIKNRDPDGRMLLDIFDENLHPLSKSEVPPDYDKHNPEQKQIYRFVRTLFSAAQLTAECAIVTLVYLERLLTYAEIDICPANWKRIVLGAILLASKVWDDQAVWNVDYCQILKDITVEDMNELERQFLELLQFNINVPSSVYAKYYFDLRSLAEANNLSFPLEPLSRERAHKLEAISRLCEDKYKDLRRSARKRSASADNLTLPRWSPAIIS

On to `COc1cc(-c2cncc(-c3ccc(N4CCN(C)CC4)cc3)c2C)cc(F)c1C(N)=O` [Compound 26a, 2-Fluoro-6-methoxy-4-(4-methyl-5-(4-(4-methylpiperazin-1-yl)phenyl)pyridin-3-yl)benzamide], for which the “% enzyme activity” value worked out at 87.58% on TAOK2/TAO1, 93.35% on CDK16/cyclin Y (PCTAIRE) and 92.53% on LCK. The remaining activity at 1 µM came out at 94.9% on PKCeta, 65.9% on CK1G3 and 94.5% on KSR1. This compound yielded a % enzyme activity at 1 μM in the assay with ALK1/ACVRL1 of 2.65%.

For `COc1cc(-c2cncc(-c3ccc(N4C[C@@H](C)N(C)[C@@H](C)C4)cc3)c2C)cc(F)c1C(N)=O` [Compound 26c, 2-Fluoro-6-methoxy-4-(4-methyl-5-(4-((3R,5S)-3,4,5-trimethylpiperazin-1-yl)phenyl)pyridin-3-yl)benzamide], the “% enzyme activity” value at TAOK2/TAO1 was found to be 99.37%; on CDK16/cyclin Y (PCTAIRE), 92.26%; at LCK, 98.93%. The remaining activity at 1 µM on PKCeta stood at 98.3%; on CK1G3 it was 78.8%; on KSR1 it was 96.3%. The % enzyme activity at 1 μM in the assay on ALK1/ACVRL1 was 4.67% and 4.38%.
